The term inhibition denotes the drop in the measured response relative to a control, in per cent. A high value points to strong suppression.

The target in the assay is T1, E. coli gyrase holoenzyme (GyrA and GyrB) (Escherichia coli, UniProt P0AES4+P0AES6).
T1 construct: His-tagged GyrA and GyrB expressed separately in E. coli BL21-CodonPlus(DE3)-RIL, tags cleaved with TEV protease, Ni-NTA and S200 purified; used as holoenzyme
T1 sequence (P0AES4 whole entry, one chain of several): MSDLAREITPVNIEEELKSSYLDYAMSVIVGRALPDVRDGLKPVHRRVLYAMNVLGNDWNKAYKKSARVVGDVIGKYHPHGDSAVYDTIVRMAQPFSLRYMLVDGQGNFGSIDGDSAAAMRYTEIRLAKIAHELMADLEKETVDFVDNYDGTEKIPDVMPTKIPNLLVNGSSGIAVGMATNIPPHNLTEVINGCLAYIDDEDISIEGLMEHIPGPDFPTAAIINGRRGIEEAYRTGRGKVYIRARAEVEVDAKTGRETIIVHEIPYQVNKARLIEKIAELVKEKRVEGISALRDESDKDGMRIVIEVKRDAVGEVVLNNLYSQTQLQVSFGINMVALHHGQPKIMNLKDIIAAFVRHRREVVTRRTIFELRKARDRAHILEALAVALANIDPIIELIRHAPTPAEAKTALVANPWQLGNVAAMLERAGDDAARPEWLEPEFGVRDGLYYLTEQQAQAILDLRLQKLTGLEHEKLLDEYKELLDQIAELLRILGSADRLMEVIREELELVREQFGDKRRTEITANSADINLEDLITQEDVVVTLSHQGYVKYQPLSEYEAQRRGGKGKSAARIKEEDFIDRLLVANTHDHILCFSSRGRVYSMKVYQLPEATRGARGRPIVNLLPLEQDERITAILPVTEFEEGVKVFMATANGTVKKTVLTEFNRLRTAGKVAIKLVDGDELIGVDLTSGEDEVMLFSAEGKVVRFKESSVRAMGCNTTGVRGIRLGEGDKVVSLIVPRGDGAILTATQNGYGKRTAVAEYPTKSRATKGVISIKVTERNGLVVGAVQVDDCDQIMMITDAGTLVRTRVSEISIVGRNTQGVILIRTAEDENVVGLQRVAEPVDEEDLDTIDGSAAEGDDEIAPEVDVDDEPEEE
Nature of the assay: supercoiling, fluorescent cruciform extrusion, NCC screen. The format is biochemical. The text has this: supercoiling, fluorescent cruciform extrusion, NCC screen on E. coli gyrase holoenzyme (GyrA and GyrB)
`CN1CCN(c2c(F)cc3c(=O)c(C(=O)O)cn4c3c2SCC4)CC1` [Rufloxacin] displayed an inhibition at 50 µM of 89%.

Compound `CCN1CCN(c2cc3c(cc2F)c(=O)c(C(=O)O)cn3C2CC2)CC1` [Enrofloxacin] registered an inhibition at 50 µM of 67%.

In turn, `CCn1cc(C(=O)O)c(=O)c2cc(F)c(N3CCN(C)CC3)cc21` [Pefloxacin] returned an inhibition at 50 µM of 95%.

`NC1CCN(c2nc3c(cc2F)c(=O)c(C(=O)O)cn3-c2ccc(F)cc2F)C1` (stereo not shown) [Tosufloxacin]: the inhibition at 50 µM was 96%.

These data come from publication PMC3711437, “Real-time detection of DNA topological changes with a fluorescently labeled cruciform” (Nucleic Acids Research, 2013).
